Values of other authors in patent US20110189281A1, “TELMISARTAN AND HYDROCHLOROTHIAZIDE COMBINATION THERAPY” (BOEHRINGER INGELHEIM INTERNATIONAL GMBH, priority 2004, published 2011).

Details: physiological pH range of the gastrointestinal tract, pH 1 to 7; free acid form

SMILES: CCCc1nc2c(C)cc(-c3nc4ccccc4n3C)cc2n1Cc1ccc(-c2ccccc2C(=O)O)cc1 [Telmisartan, 4′-[(1,4′-dimethyl-2′-propyl-[2,6′-bi-1H-benzimidazol]-1′-yl)methyl]-[1,1′-biphenyl]-2-carboxylic acid]
- Solubility in aqueous systems: very poor solubility
